Data: US20240138411A1, “METHOD OF […] OF SUGARCANE” (CORTEVA AGRISCIENCE LLC, priority 2021, published 2024)

Tested on: sugarcane
Test: Sugarcane flowering inhibition field trials, floral induction rated on UFSCar scale
Type: in vivo
Settings: 475 g ai/ha
Protocol: In order to explore the activity of florpyrauxifen as flowering inhibitor in sugarcane, field studies were carried out. Florpyrauxifen-benzyl was tested at rates from 2 to 20 grams active ingredient per hectare (g ai/ha) and compared to Ethrel® 720 (Bayer), the standard treatment. The flowering inhibition effect was assessed by checking the floral induction in sugarcane through the percentage scale recommended by UFSCar (Federal University of Sao Carlos, Sao Paulo, Brazil).
Four trials were carried out in sugarcane where florpyrauxifen-benzyl (Rinskor®), applied at a rate of 2 to 20 g ai/ha, was compared to ethephon (Ethrel® 720) applied at a rate of 475 g ai/ha. Control plots of untreated sugarcane were also evaluated. Rinskor® and Ethrel® 720 were diluted in water and a single application for each study (backpack sprayer) was performed delivering 50 L of spray solution per ha at the reproductive stage of sugarcane and at a maximum 150 days before harvest. The activity of florpyrauxifen-benzyl as a flowering inhibitor was measured via assessments (Scale of flowering inhibition—see chart 1) performed at 0, 14, 30, 45, 60, 75, 90, 120, 150 days after application, or up to harvest time. The assessments were measured in sugarcane stems, rating the flowering induction according to the UFSCar scale shown below. Significance of treatment effect was evaluated with F-approximate test (α=0.1) and least square means from different treatments were compared with Tukey's test.

O=P(O)(O)CCCl [ETHREL720, 2-chloroethylphosphonic acid]
% Referring to Scale (Table 1, 75 DAA): 12.4%
Frequency 1/1 (0%) (Table 1, 75 DAA): 17.5%
Frequency 2/1 (15%) (Table 1, 75 DAA): 82.5%
Frequency 3/1 (30%) (Table 1, 75 DAA): 0.0%
Frequency 4/1 (50%) (Table 1, 75 DAA): 0.0%
Frequency 4/2 (80%) (Table 1, 75 DAA): 0.0%
Frequency 4/3 (90%) (Table 1, 75 DAA): 0.0%
Frequency 4/4 (100%) (Table 1, 75 DAA): 0.0%
% Referring to Scale (Table 1, 90 DAA): 13.1%
Frequency 1/1 (0%) (Table 1, 90 DAA): 20.0%
Frequency 2/1 (15%) (Table 1, 90 DAA): 72.5%
Frequency 3/1 (30%) (Table 1, 90 DAA): 7.5%
Frequency 4/1 (50%) (Table 1, 90 DAA): 0.0%
Frequency 4/2 (80%) (Table 1, 90 DAA): 0.0%
Frequency 4/3 (90%) (Table 1, 90 DAA): 0.0%
Frequency 4/4 (100%) (Table 1, 90 DAA): 0.0%
% Referring to Scale (Table 1, 120 DAA): 18.1%
Frequency 1/1 (0%) (Table 1, 120 DAA): 0.0%
Frequency 2/1 (15%) (Table 1, 120 DAA): 87.5%
Frequency 3/1 (30%) (Table 1, 120 DAA): 10.0%
Frequency 4/1 (50%) (Table 1, 120 DAA): 0.0%
Frequency 4/2 (80%) (Table 1, 120 DAA): 2.5%
Frequency 4/3 (90%) (Table 1, 120 DAA): 0.0%
Frequency 4/4 (100%) (Table 1, 120 DAA): 0.0%
% Referring to Scale (Table 2, 75 DAA): 0.8%
Frequency 1/1 (0%) (Table 2, 75 DAA): 95.0%
Frequency 2/1 (15%) (Table 2, 75 DAA): 5.0%
Frequency 3/1 (30%) (Table 2, 75 DAA): 0.0%
Frequency 4/1 (50%) (Table 2, 75 DAA): 0.0%
Frequency 4/2 (80%) (Table 2, 75 DAA): 0.0%
Frequency 4/3 (90%) (Table 2, 75 DAA): 0.0%
Frequency 4/4 (100%) (Table 2, 75 DAA): 0.0%
% Referring to Scale (Table 2, 90 DAA): 51.8%
Frequency 1/1 (0%) (Table 2, 90 DAA): 0.0%
Frequency 2/1 (15%) (Table 2, 90 DAA): 0.0%
Frequency 3/1 (30%) (Table 2, 90 DAA): 25.0%
Frequency 4/1 (50%) (Table 2, 90 DAA): 52.5%
Frequency 4/2 (80%) (Table 2, 90 DAA): 22.5%
Frequency 4/3 (90%) (Table 2, 90 DAA): 0.0%
Frequency 4/4 (100%) (Table 2, 90 DAA): 0.0%
% Referring to Scale (Table 2, 120 DAA): 98.0%
Frequency 1/1 (0%) (Table 2, 120 DAA): 0.0%
Frequency 2/1 (15%) (Table 2, 120 DAA): 0.0%
Frequency 3/1 (30%) (Table 2, 120 DAA): 0.0%
Frequency 4/1 (50%) (Table 2, 120 DAA): 0.0%
Frequency 4/2 (80%) (Table 2, 120 DAA): 2.5%
Frequency 4/3 (90%) (Table 2, 120 DAA): 15.0%
Frequency 4/4 (100%) (Table 2, 120 DAA): 82.5%
% Referring to Scale (Table 3, 90 DAA): 0.0%
Frequency 1/1 (0%) (Table 3, 90 DAA): 100.0%
Frequency 2/1 (15%) (Table 3, 90 DAA): 0.0%
Frequency 3/1 (30%) (Table 3, 90 DAA): 0.0%
Frequency 4/1 (50%) (Table 3, 90 DAA): 0.0%
Frequency 4/2 (80%) (Table 3, 90 DAA): 0.0%
Frequency 4/3 (90%) (Table 3, 90 DAA): 0.0%
Frequency 4/4 (100%) (Table 3, 90 DAA): 0.0%
% Referring to Scale (Table 3, 120 DAA): 1.5%
Frequency 1/1 (0%) (Table 3, 120 DAA): 90.0%
Frequency 2/1 (15%) (Table 3, 120 DAA): 10.0%
Frequency 3/1 (30%) (Table 3, 120 DAA): 0.0%
Frequency 4/1 (50%) (Table 3, 120 DAA): 0.0%
Frequency 4/2 (80%) (Table 3, 120 DAA): 0.0%
Frequency 4/3 (90%) (Table 3, 120 DAA): 0.0%
Frequency 4/4 (100%) (Table 3, 120 DAA): 0.0%
% Referring to Scale (Table 3, 150 DAA): 0.0%
Frequency 1/1 (0%) (Table 3, 150 DAA): 100.0%
Frequency 2/1 (15%) (Table 3, 150 DAA): 0.0%
Frequency 3/1 (30%) (Table 3, 150 DAA): 0.0%
Frequency 4/1 (50%) (Table 3, 150 DAA): 0.0%
Frequency 4/2 (80%) (Table 3, 150 DAA): 0.0%
Frequency 4/3 (90%) (Table 3, 150 DAA): 0.0%
Frequency 4/4 (100%) (Table 3, 150 DAA): 0.0%
% Referring to Scale (Table 4, 90 DAA): 4.9%
Frequency 1/1 (0%) (Table 4, 90 DAA): 67.5%
Frequency 2/1 (15%) (Table 4, 90 DAA): 32.5%
Frequency 3/1 (30%) (Table 4, 90 DAA): 0.0%
Frequency 4/1 (50%) (Table 4, 90 DAA): 0.0%
Frequency 4/2 (80%) (Table 4, 90 DAA): 0.0%
Frequency 4/3 (90%) (Table 4, 90 DAA): 0.0%
Frequency 4/4 (100%) (Table 4, 90 DAA): 0.0%
